Assay results published in US20200197365A1, “TREATMENT WITH NMDA RECEPTOR MODULATORS” (Naurex Inc., priority 2017, published 2020).
Residues, ends and D or L forms follow the SMILES beside them.

Test system: Male rats
Test: Sleep-wake cycle analysis by telemetric EEG recording (23 hours) in rats
Format: in vivo, rat
Settings: for latency to SWS onset (change): FIG. 1A; for latency to REM sleep onset (change): FIG. 1B
Protocol: Male rats were anesthetized and surgically implanted with 2 surface electrodes in the frontoparietal cortex and 2 depth electrodes in the CA1 region of the hippocampus (AP+5.0 mm, L±2.5 mm, V+7.0 mm). After ≥10 days recovery, telemetric transmitters were connected to electrodes for electroencephalographic (EEG) recordings. On the day of experiment, rats were injected at the beginning of the light phase with rapastinel (3, 10, or 30 mg/kg, IV), ketamine (30 mg/kg, IP), or the positive control zolpidem (12 mg/kg, PO) using a treatment schedule based on a cross-over design (n=9-10/dose/group) in which rats received zolpidem or rapastinel at session 1 and then rapastinel and/or ketamine at sessions 2-4. Physiological saline was used as the vehicle control
Sleep-wake cycles were measured continuously following rapastinel treatment for the next 23 hours and were analyzed based on a spectral power analysis. Latencies to first occurrence of SWS and REM sleep, as well as percent time spent in SWS, REM sleep, and wakefulness, were calculated for the total recording sessions (23 hours), the half cycles (0-12 and 12-23 hours), and 5 time segments (0-4, 4-8, 8-12, 12-18, and 18-23 hours). Depth of SWS (defined as the ratio between alpha and delta spectral power) was also calculated. Differences between vehicle and test drugs were calculated for all variables, for each animal, and for the means of the animals per treatment group, and analyzed using a paired t-test

[1] = ketamine 30 mg/kg IP, 12-23 hours post-dose, P<0.05
[2] = rapastinel, entire recording session, FIG. 2

For `CNC1(c2ccccc2Cl)CCCCC1=O` (centres unmarked) [Ketamine, ketamine], the “alpha/delta ratio (depth of SWS)” value (ketamine 30 mg/kg IP, 0-4 hours post-dose) was “concomitant decrease”, the “duration of SWS” value (ketamine 30 mg/kg IP, 0-4 hours post-dose, FIG. 2A) was “decreased” and the “duration of REM sleep” value (ketamine 30 mg/kg IP, 0-4 hours post-dose, P<0.001) was “decreased”. The “waking (duration)” value (ketamine 30 mg/kg IP, 12-23 hours post-dose, P<0.01) was “small but significant decrease”, the “REM sleep (duration)” value [1] was “compensatory increase” and the SWS duration [1] was “significantly increased”. The “percentage of active waking” value [1] was “significantly decreased”, the “latency to SWS onset (change)” value (ketamine 30 mg/kg IP, P<0.001) was “+393%” and the “latency to REM sleep onset (change)” value (ketamine 30 mg/kg IP, P<0.001) was “+104%”. For the same compound, the duration of waking (ketamine 30 mg/kg IP, first 4 hours post-dose, P<0.001) was “significantly increased”.

For `Cc1ccc(-c2nc3ccc(C)cn3c2CC(=O)N(C)C)cc1` [Zolpidem, zolpidem], the “percentage of active waking” value (zolpidem 12 mg/kg PO, 0-12 hours post-dose, P<0.05) was “significantly decreased”, the “duration of REM sleep” value (zolpidem 12 mg/kg PO, 4-8 hours post-dose, P<0.05) was “significantly decreased” and the “depth of SWS” value (zolpidem 12 mg/kg PO, >8 hours post-dose, P<0.05, FIG. 2B) was “significantly increased”. For the same compound, the duration of waking (zolpidem 12 mg/kg PO, FIG. 4A) was “no effect”, the “latency to REM sleep onset (change)” value (zolpidem 12 mg/kg PO, P<0.01) was “+67%” and the “latency to SWS onset (change)” value (zolpidem 12 mg/kg PO, P<0.05) was −50%.

For `C[C@@H](O)[C@H](N)C(=O)N1CCC[C@H]1C(=O)N1CCC[C@H]1C(=O)N[C@H](C(N)=O)[C@@H](C)O` [Rapastinel, rapastinel] (H-TPPT-NH2), the “latency to SWS onset (change)” value (rapastinel 3 mg/kg IV, P<0.05) was −33%, the “percentage of active waking” value (rapastinel 30 mg/kg IV, 8-12 hours post-dose, P<0.01) was “small but significant decrease” and the “percentage of active waking” value (rapastinel 30 mg/kg IV, 18-23 hours post-dose, P<0.05) was “small but significant decrease”. For the same compound, the “latency to REM sleep onset” value (rapastinel 3, 10, and 30 mg/kg IV) was “no significant effect”, the “duration of REM sleep” value (rapastinel 3, 10, and 30 mg/kg IV, FIG. 3) was “did not have a significant effect” and the duration of waking (rapastinel 3, 10, or 30 mg/kg IV, FIG. 4A) was “no effect”. For the same compound, the “latency to SWS onset” value (rapastinel 10 and 30 mg/kg IV) was “no significant effect”, the “percentage of active waking” value (rapastinel, all doses and time segments other than the 30 mg/kg exceptions, FIG. 4B) was “no effect” and the “depth of SWS” value [2] was “no significant effect”. The “duration of SWS” value [2] was “no significant effect”.
